Source: patent US20240140935A1, “NON-COVALENT DIMER CATION, SALT THEREOF, PREPARATION METHOD THEREOF, AND USE THEREOF AS ANTIOXIDANT” (SUZHOU PROTONATION CHAIN BIOTECHNOLOGY CO., LTD., priority 2022, published 2024)

How the values were obtained:
[1] = system: L02 human normal hepatocytes; assay: Carbon tetrachloride hepatotoxicity cell model, levels of ROS, MDA, GSH, SOD and ATP in cell lysate; format: cell-based
Method: The salts of Example 1, Example 16, and Example 13 were taken as the compound of experimental groups, vitamin E was taken as the compound of control group. A blank group (without carbon tetrachloride) and a model group (with carbon tetrachloride but with neither the salt of the present application nor vitamin E) were also set.
L02 human normal hepatocytes were uniformly inoculated into a 96-well plate, about 5,000 cells per well. The cells were cultured in a complete DMEM for 6 h. After the cells were completely adhered to the wall, all the media were removed, 100 μL of serum-free DMEM containing 0.02 mg/mL carbon tetrachloride (for the blank group, a serum-free medium without carbon tetrachloride) was added to each well, and the cells were cultured for 12 h. Then, all the media were removed, 100 μL of serum-free DMEM containing […] compound of experimental groups or control group was added to each well (for the blank group and the model group, serum-free DMEM without the compound) according to the groups, and the cells were cultured for 24 h.
(§1) 50 μL of RIPA lysis buffer (strong) was added to each well to lyse the cells, and levels of reactive oxygen species, malondialdehyde, glutathione, superoxide dismutase, and adenosine triphosphate in the cells of each group were detected by using corresponding chemical reagents.

[2] = system: L02 human normal hepatocytes; assay: Palmitate-induced non-alcoholic fatty liver disease cell model, levels of ROS, MDA, GSH, SOD and ATP in cell lysate; format: cell-based
Method: The salts of Example 1, Example 16, and Example 13 were taken as the compound of experimental groups, vitamin E was taken as the compound of control group. A blank group (without palmitate) and a model group (with palmitate but with neither the salt of the present application nor vitamin E) were also set.
L02 human normal hepatocytes were uniformly inoculated into a 96-well plate, about 5,000 cells per well. The cells were cultured in a complete DMEM for 6 h. After the cells were completely adhered to the wall, all the media were removed, 100 μL of serum-free medium containing 0.05 mg/mL palmitate was added to each well (for the blank group, a serum-free medium without palmitate), and the cells were cultured for 24 h.
Then, all the media were removed, 100 μL of serum-free DMEM containing […] compound of experimental groups or control group was added to each well (for the blank group and the model group, serum-free DMEM without the compound) according to the groups, and the cells were cultured for 24 h.
as §1

vitamin E
level of ROS in the cells ([1]; FIG. 6 (a)): only slightly reduce | level of MDA in the cells ([1]; FIG. 6 (b)): only slightly reduce | level of GSH in the cells ([1]; FIG. 6 (c)): only slightly increase | level of SOD in the cells ([1]; FIG. 6 (d)): only slightly increase | level of ATP in the cells ([1]; FIG. 6 (e)): only partially increase | level of ROS in the cells ([2]; FIG. 4 (a)): only slightly reduce | level of MDA in the cells ([2]; FIG. 4 (b)): only slightly reduce | level of GSH in the cells ([2]; FIG. 4 (c)): only slightly increase | level of SOD in the cells ([2]; FIG. 4 (d)): only slightly increase | level of ATP in the cells ([2]; FIG. 4 (e)): only partially increase
